In patent publication US8592485B2, “Methods and pharmaceutical compositions for treating the animal central nervous system for psychiatric disorders” (HealthPartners Research Foundation, priority 2010, dated 2013):

Columns and labels:
GSK3b = assay: Hippocampal pGSK3b/GSK3b ratio in C57 mice after DFO (western blot, ELISA); type: in vivo; conditions: hippocampus (FIG. 1A); for higher ratio of pGSK3b/GSK3b than PBS mice: upper third of nasal cavity, five days/week for four weeks
Experimental: The study method providing results in FIGS. 1A and 1B comprised normal C57 mice which were treated with DFO by administration to the upper third of the nasal cavity, thereby delivering the DFO directly to the CNS by bypassing the blood-brain barrier. Treatment groups consisted of 1% DFO, 10% DFO and saline. Mice were treated five days/week for four weeks. Mice were then dosed a final time, euthanized after 30 minutes, brain tissues collected an analyzed for biochemical changes. Protein extraction was achieved by homogenization of frozen brain tissues in 5 volumes of ice-cold RIPA buffer supplemented with protease inhibitor cocktail and phosphatase inhibitor cocktail. Homogenates were centrifuged at 20,000×g for 20 minutes at 4C. Supernatant was collected from the cortex, diencephalon and hippocampus and stored at −70C until analysis by western blot and ELISA.

[1] = cited from earlier work
[2] = cited from earlier work; remark: listed apart in the source
[3] = Intranasal delivery of DFO (bound to 59Fe) to rats, tissue concentrations by scintillation counting
Experimental: Delivery of intranasal DFO to the upper one-third of the nasal cavity has been assessed by administering 6 mg DFO bound to 6 μCi of ^59Fe (as ^59FeCl3) to rats under anesthesia. The IN dose in 60 μL was administered as 6 μL drops over twenty minutes. Following delivery, tissues were removed for analysis.

SMILES: CC(=O)N(O)CCCCCNC(=O)CCC(=O)N(O)CCCCCNC(=O)CCC(=O)N(O)CCCCCN [DFO, deferoxamine]
- higher ratio of pGSK3b/GSK3b than PBS mice (GSK3b; 1% DFO): 99.8%
- higher ratio of pGSK3b/GSK3b of 10% DFO mice than 1% DFO mice (GSK3b; 10% DFO versus 1% DFO, intranasal): 57.4%
- higher ratio of pGSK3b/GSK3b than PBS mice (GSK3b; 10% DFO): 214%
- typical plasma half-life ([1]; humans, intravenous): less than 10 minutes
- crossing of the blood-brain barrier ([1]; intravenously or systemically administered): does not efficiently or effectively cross the blood-brain barrier
- effect of injection of an intravenous bolus [2]: acute hypotension

SMILES: CC(=O)N([O-])CCCCCNC(=O)CCC(=O)N([O-])CCCCCNC(=O)CCC(=O)N([O-])CCCCCN.[Fe+3] [ferrioxamine]
- blood concentrations of ferrioxamine ([3]; 5 minute intervals from dosing up to 25 minutes post-dose): quite low
- labeled ferrioxamine in brain by scintillation counting ([3]; intranasal 6 mg DFO bound to 6 uCi 59Fe): detected throughout the brain
